{"source": "patent US20090118249A1", "about": "“DHEAS INHALATION COMPOSITIONS” (priority 2007, published 2009)", "experiment": "Solubility in aqueous solution", "format": "physicochemical", "source_text": "In some cases, the DHEAS will associate with or form a complex with the divalent cation which is less soluble than the DHEAS sodium salt."}
{"substance": "Dehydroepiandrosterone sulfate [DHEAS-Na]", "values": [{"measurement": "solubility", "result": "about 17 mg/ml"}]}
